Laboratory results taken from patent US20250360109A1, “COMPOSITIONS AND METHODS FOR TREATING DEPRESSION IN FEMALES” (priority 2022, published 2025).

What was measured:
[1] = system: adult subjects with major depressive disorder (MDD); assay: Phase 2 placebo-controlled study in MDD, Montgomery-Asberg Depression Rating Scale (MADRS) total score; format: in vivo, human; conditions: for Change from Baseline, MADRS Total at Week 1, LSM Difference (95% CI) / Change from Baseline, MADRS Total at Week 2, LSM Difference (95% CI) / Change from Baseline, MADRS Total at Week 3, LSM Difference (95% CI) / Change from Baseline, MADRS Total at Week 4, LSM Difference (95% CI): 20 mg/day vs Placebo, MMRM; for Change from Baseline, MADRS Total at Week 1, LSM Difference (95% CI) / Change from Baseline, MADRS Total at Week 2, LSM Difference (95% CI) / Change from Baseline, MADRS Total at Week 3, LSM Difference (95% CI) / Change from Baseline, MADRS Total at Week 4, LSM Difference (95% CI) / Change from Baseline, MADRS Total at Week 1, Mean (SD) / Change from Baseline, MADRS Total at Week 1, Median / Change from Baseline, MADRS Total at Week 2, Mean (SD) / Change from Baseline, MADRS Total at Week 2, Median / Change from Baseline, MADRS Total at Week 3, Mean (SD) / Change from Baseline, MADRS Total at Week 3, Median / Change from Baseline, MADRS Total at Week 4, Mean (SD) / Change from Baseline, MADRS Total at Week 4, Median / MADRS Total at Week 1, Mean (SD) / MADRS Total at Week 1, Median / MADRS Total at Week 2, Mean (SD) / MADRS Total at Week 2, Median / MADRS Total at Week 3, Mean (SD) / MADRS Total at Week 3, Median / MADRS Total at Week 4, Mean (SD) / MADRS Total at Week 4, Median: mITT; for Change from Baseline, MADRS Total at Week 1, Mean (SD) / Change from Baseline, MADRS Total at Week 1, Median / Change from Baseline, MADRS Total at Week 2, Mean (SD) / Change from Baseline, MADRS Total at Week 2, Median / Change from Baseline, MADRS Total at Week 3, Mean (SD) / Change from Baseline, MADRS Total at Week 3, Median / Change from Baseline, MADRS Total at Week 4, Mean (SD) / Change from Baseline, MADRS Total at Week 4, Median / MADRS Total at Week 1, Mean (SD) / MADRS Total at Week 1, Median / MADRS Total at Week 2, Mean (SD) / MADRS Total at Week 2, Median / MADRS Total at Week 3, Mean (SD) / MADRS Total at Week 3, Median / MADRS Total at Week 4, Mean (SD) / MADRS Total at Week 4, Median: 20 mg/day
Experimental: (§1) A Phase 2, multicenter, double-blind, randomized, placebo-controlled study of the safety and efficacy of SP-624 in the treatment of adult subjects with major depressive disorder (MDD) as defined by the Diagnostic and Statistical Manual of Mental Disorders, Fifth Edition (DSM-5) was carried out. Following the successful completion of a Screening Phase, subjects were randomized to one of two treatment groups in a 1:1 ratio and received Compound 1 (SP-624) or placebo over a treatment period of four weeks (Treatment Group #1: SP-624 20 mg/day; Treatment Group #2: Placebo).
(§2) Prior to initiating the 4-week treatment period, subjects completed a Screening/Baseline period of up to 28 days, during which time all screening assessments were performed, and any current depression medications discontinued. All screening assessments were completed before discontinuing any current depression medications. Subjects returned for a Baseline Visit to complete efficacy and safety assessments. During the treatment period, subjects returned to the investigative site to complete efficacy and safety assessments at the end of Weeks 1, 2, 3, and 4. After the final dose of study drug, subjects completed a follow-up period of two weeks and returned at the end of Weeks 5 and 6. Subjects may be treated with anti-depressant medications according to physician recommendations after completion of the Week 5 Visit.
(§3) Each dose of Compound 1 was supplied as two capsules, each containing 10 mg of active pharmaceutical ingredient (API). Matching placebo capsules identical in shape and color to the active capsules were used.
The primary efficacy endpoint was Change from Baseline to Week 4 in Montgomery-Asberg Depression Rating Scale (MADRS) total score.
(§4) Secondary efficacy endpoints included: • Change from Baseline to Weeks 1, 2, and 3 in MADRS total score, • Change from Baseline to Weeks 1, 2, 3, and 4 in Clinical Global Impression-Severity (CGI-S) total score, • Change from Baseline to Week 5 and change from Week 4 to Week 5 in MADRS total score and CGI-S total score, • Change from Baseline to Week 2 and Week 4 in the 17-item Hamilton Depression Rating Scale (HAM D-17) total score, • Change from Baseline to Week 2 and Week 4 in the Sheehan Disability Scale (SDS), • Change from Baseline to Week 2 and Week 4 in the Quick Inventory of Depressive Symptomology-Self Report (QIDS-SR), and • Change from Baseline to Week 2 and Week 4 in the Quality of Life Enjoyment and Satisfaction Questionnaire-Short Form (Q-LES-Q-SF).

[2] = system: adult subjects with major depressive disorder (MDD); assay: Phase 2 placebo-controlled study in MDD, Clinical Global Impression-Severity (CGI-S) total score; format: in vivo, human; conditions: mITT; for Change from Baseline, CGI-S Total at Week 1, LSM Difference (95% CI) / Change from Baseline, CGI-S Total at Week 2, LSM Difference (95% CI) / Change from Baseline, CGI-S Total at Week 3, LSM Difference (95% CI) / Change from Baseline, CGI-S Total at Week 4, LSM Difference (95% CI): 20 mg/day vs Placebo; for CGI-S Total at Week 1, Mean (SD) / CGI-S Total at Week 1, Median / CGI-S Total at Week 2, Mean (SD) / CGI-S Total at Week 2, Median / CGI-S Total at Week 3, Mean (SD) / CGI-S Total at Week 3, Median / CGI-S Total at Week 4, Mean (SD) / CGI-S Total at Week 4, Median / Change from Baseline, CGI-S Total at Week 1, Mean (SD) / Change from Baseline, CGI-S Total at Week 1, Median / Change from Baseline, CGI-S Total at Week 2, Mean (SD) / Change from Baseline, CGI-S Total at Week 2, Median / Change from Baseline, CGI-S Total at Week 3, Mean (SD) / Change from Baseline, CGI-S Total at Week 3, Median / Change from Baseline, CGI-S Total at Week 4, Mean (SD) / Change from Baseline, CGI-S Total at Week 4, Median: 20 mg/day
Experimental: as §1, §2, §3, §4

COC1=CC(=O)C[C@@H](C)[C@]12Oc1c(Cl)c(-c3nnc(C)o3)cc(OC)c1C2=O [SP-624, (2S,6′R)-7-Chloro-2′,4-dimethoxy-6′-methyl-6-(5-methyl-1,3,4-oxadiazol-2-yl)-3H-spiro[1-benzofuran-2,1′-cyclohex [2]ene]-3,4′-dione]
Change from Baseline, MADRS Total at Week 1, LSM Difference (95% CI) ([1]; Female): −0.9 (−2.8, 1.1) | Change from Baseline, MADRS Total at Week 2, LSM Difference (95% CI) ([1]; Female): −1.9 (−4.3, 0.5) | Change from Baseline, MADRS Total at Week 3, LSM Difference (95% CI) ([1]; Female): −3.5 (−6.2, −0.8) | Change from Baseline, MADRS Total at Week 4, LSM Difference (95% CI) ([1]; Female): −3.9 (−6.8, −1.0) | Change from Baseline, MADRS Total at Week 1, Mean (SD) ([1]; Female): −6.6 (6.19) | Change from Baseline, MADRS Total at Week 1, Median ([1]; Female): −6 | Change from Baseline, MADRS Total at Week 2, Mean (SD) ([1]; Female): −10.1 (8.20) | Change from Baseline, MADRS Total at Week 2, Median ([1]; Female): −8 | Change from Baseline, MADRS Total at Week 3, Mean (SD) ([1]; Female): −12.5 (9.74) | Change from Baseline, MADRS Total at Week 3, Median ([1]; Female): −11 | Change from Baseline, MADRS Total at Week 4, Mean (SD) ([1]; Female): −13.5 (10.40) | Change from Baseline, MADRS Total at Week 4, Median ([1]; Female): −13 | MADRS Total at Week 1, Mean (SD) ([1]; Female): 26.7 (8.10) | MADRS Total at Week 1, Median ([1]; Female): 27 | MADRS Total at Week 2, Mean (SD) ([1]; Female): 23.1 (8.76) | MADRS Total at Week 2, Median ([1]; Female): 25 | MADRS Total at Week 3, Mean (SD) ([1]; Female): 20.8 (10.11) | MADRS Total at Week 3, Median ([1]; Female): 21 | MADRS Total at Week 4, Mean (SD) ([1]; Female): 19.8 (10.75) | MADRS Total at Week 4, Median ([1]; Female): 21 | Change from Baseline, MADRS Total at Week 1, LSM Difference (95% CI) ([1]; Male): 0.7 (−2.7, 4.1) | Change from Baseline, MADRS Total at Week 2, LSM Difference (95% CI) ([1]; Male): −0.7 (−4.1, 2.8) | Change from Baseline, MADRS Total at Week 3, LSM Difference (95% CI) ([1]; Male): 2.2 (−1.3, 5.8) | Change from Baseline, MADRS Total at Week 4, LSM Difference (95% CI) ([1]; Male): 2.7 (−0.8, 6.3) | Change from Baseline, MADRS Total at Week 1, Mean (SD) ([1]; Male): −6.6 (7.04) | Change from Baseline, MADRS Total at Week 1, Median ([1]; Male): −5 | Change from Baseline, MADRS Total at Week 2, Mean (SD) ([1]; Male): −9.8 (8.94) | Change from Baseline, MADRS Total at Week 2, Median ([1]; Male): −9 | Change from Baseline, MADRS Total at Week 3, Mean (SD) ([1]; Male): −10.6 (9.28) | Change from Baseline, MADRS Total at Week 3, Median ([1]; Male): −9 | Change from Baseline, MADRS Total at Week 4, Mean (SD) ([1]; Male): −11.4 (9.44) | Change from Baseline, MADRS Total at Week 4, Median ([1]; Male): −10 | MADRS Total at Week 1, Mean (SD) ([1]; Male): 25.5 (7.31) | MADRS Total at Week 1, Median ([1]; Male): 26 | MADRS Total at Week 2, Mean (SD) ([1]; Male): 22.6 (9.35) | MADRS Total at Week 2, Median ([1]; Male): 24 | MADRS Total at Week 3, Mean (SD) ([1]; Male): 21.4 (9.60) | MADRS Total at Week 3, Median ([1]; Male): 22 | MADRS Total at Week 4, Mean (SD) ([1]; Male): 20.8 (9.61) | MADRS Total at Week 4, Median ([1]; Male): 21 | lowering the MADRS score by an average of ([1]; females, therapeutically effective): 3.9 points | effect on MADRS score ([1]; males): no effect | Change from Baseline, CGI-S Total at Week 1, LSM Difference (95% CI) ([2]; Female): −0.1 (−0.3, 0.1) | Change from Baseline, CGI-S Total at Week 2, LSM Difference (95% CI) ([2]; Female): −0.3 (−0.5, 0.0) | Change from Baseline, CGI-S Total at Week 3, LSM Difference (95% CI) ([2]; Female): −0.4 (−0.7, −0.1) | Change from Baseline, CGI-S Total at Week 4, LSM Difference (95% CI) ([2]; Female): −0.5 (−0.8, −0.1) | CGI-S Total at Week 1, Mean (SD) ([2]; Female): 4.0 (0.89) | CGI-S Total at Week 1, Median ([2]; Female): 4 | CGI-S Total at Week 2, Mean (SD) ([2]; Female): 3.6 (0.97) | CGI-S Total at Week 2, Median ([2]; Female): 4 | CGI-S Total at Week 3, Mean (SD) ([2]; Female): 3.4 (1.15) | CGI-S Total at Week 3, Median ([2]; Female): 4 | CGI-S Total at Week 4, Mean (SD) ([2]; Female): 3.3 (1.20) | CGI-S Total at Week 4, Median ([2]; Female): 3 | Change from Baseline, CGI-S Total at Week 1, Mean (SD) ([2]; Female): −0.5 (0.80) | Change from Baseline, CGI-S Total at Week 1, Median ([2]; Female): 0 | Change from Baseline, CGI-S Total at Week 2, Mean (SD) ([2]; Female): −0.8 (0.96) | Change from Baseline, CGI-S Total at Week 2, Median ([2]; Female): −1 | Change from Baseline, CGI-S Total at Week 3, Mean (SD) ([2]; Female): −1.1 (1.13) | Change from Baseline, CGI-S Total at Week 3, Median ([2]; Female): −1 | Change from Baseline, CGI-S Total at Week 4, Mean (SD) ([2]; Female): −1.2 (1.14) | Change from Baseline, CGI-S Total at Week 4, Median ([2]; Female): −1 | Change from Baseline, CGI-S Total at Week 1, LSM Difference (95% CI) ([2]; Male): 0.0 (−0.5, 0.4) | Change from Baseline, CGI-S Total at Week 2, LSM Difference (95% CI) ([2]; Male): −0.1 (−0.5, 0.3) | Change from Baseline, CGI-S Total at Week 3, LSM Difference (95% CI) ([2]; Male): 0.0 (−0.4, 0.4) | Change from Baseline, CGI-S Total at Week 4, LSM Difference (95% CI) ([2]; Male): 0.2 (−0.3, 0.6) | CGI-S Total at Week 1, Mean (SD) ([2]; Male): 3.9 (0.84) | CGI-S Total at Week 1, Median ([2]; Male): 4 | CGI-S Total at Week 2, Mean (SD) ([2]; Male): 3.5 (1.18) | CGI-S Total at Week 2, Median ([2]; Male): 4 | CGI-S Total at Week 3, Mean (SD) ([2]; Male): 3.4 (1.15) | CGI-S Total at Week 3, Median ([2]; Male): 4 | CGI-S Total at Week 4, Mean (SD) ([2]; Male): 3.4 (1.27) | CGI-S Total at Week 4, Median ([2]; Male): 4 | Change from Baseline, CGI-S Total at Week 1, Mean (SD) ([2]; Male): −0.5 (0.85) | Change from Baseline, CGI-S Total at Week 1, Median ([2]; Male): 0 | Change from Baseline, CGI-S Total at Week 2, Mean (SD) ([2]; Male): −0.9 (1.16) | Change from Baseline, CGI-S Total at Week 2, Median ([2]; Male): −1 | Change from Baseline, CGI-S Total at Week 3, Mean (SD) ([2]; Male): −1.0 (1.16) | Change from Baseline, CGI-S Total at Week 3, Median ([2]; Male): −1 | Change from Baseline, CGI-S Total at Week 4, Mean (SD) ([2]; Male): −1.0 (1.27) | Change from Baseline, CGI-S Total at Week 4, Median ([2]; Male): −1
